US12466821B2 (Novartis AG, priority 2018, dated 2025)

The molecules below were run on Luciferase-encoding HCMV, AD169 strain (assay: CMV Luciferase assay (cellular herpesvirus replication)). Conditions: Human betaherpesvirus 5, AD169, read-out: CMV-Luc Cellular EC50.
Assay type: cell-based
Protocol: For all viral assays, 10 mM DMSO stock compound solutions were serially diluted in DMSO at 3.16 fold dilutions in 96-well clear round bottom plates. Compounds were then diluted in assay media at 1:20 and subsequently 10 μL of these dilutions were added to cells for final compound concentrations ranging either from 0.0159 μM to 50 μM in 0.5% DMSO/assay media, or from 0.00318 to 10 μM in 0.5% DMSO/assay media.
The assay uses a Luciferase-encoding HCMV. Luciferase is expressed under the control of a late viral gene (pp28) promoter in the AD169 strain, so that expression of the reporter is dependent on viral DNA replication. Compounds that affect any stage from viral entry to DNA replication result in a change in luciferase levels.
Viral replication in the presence or absence of compounds was measured by luciferase activity according to the following procedure: Neo-natal normal human dermal fibroblast cells (NN-NHDF, from ATCC cat #201-010) were seeded at 9,000 cells/well in 96-well white solid bottom plate at 80 uL/well in assay media: 2% FBS, 4 mM GlutaMax® (Invitrogen cat #35050) in DMEM/high glucose/no glutamine/no phenol red media (Invitrogen cat #31053). After 2 hrs at 37° C., 10 uL of compound diluted in assay media or 5% DMSO (final 0.5% DMSO/well) was added and the plates returned to 37° C. One hour later, 10 uL of virus diluted in assay media was added at a final Multiplicity of infection (MOI) of 1. Plates were incubated at 37° C. for 72 hrs. At 72 hours post-infection (hpi), plates were equilibrated to room temperature. After 25 min, 100 uL Renilla-Glo® Luciferase Assay Reagent (Promega cat # E2750) was added to each well and incubated for 10 min. Plates were covered to protect from light. Luminescence was measured on the PHERAstar FS®.
The following controls were included in the data analysis: No virus, no compound (0.5% DMSO)=IC (maximal inhibitory control); Virus, no compound (0.5% DMSO)=NC (neutral control). Data were analyzed using an internal Novartis software (Helios). The means of the controls (NC, IC) were used to normalize the results to a % scale using the formula: % Control=100−(100*(Sample value−NC)/(IC−NC)).
For each compound, the software derived an EC50 using a 4-parameter logistical model.
In the case of `CN(C)C(=O)C1(CN2CCn3c(ccc(C(=O)NCc4ccc(Cl)cc4)c3=O)C2=O)CC1` [Example 209], the EC50 is reported as 2.49 µM.
In the case of `NC1(CN2CCn3c(ccc(C(=O)NCc4ccc(Cl)cc4)c3=O)C2=O)CC1` [Example 197], the EC50 is reported as 4.79 µM.
In the case of `CN(C)S(=O)(=O)C1(CN2CCn3c(ccc(C(=O)NCc4ccc(C#N)cc4)c3=O)C2=O)CC1` [Example 90-2], the EC50 is reported as 0.034 µM.
Work on `O=C(NCc1ccc(Cl)cc1)c1cc(C(F)F)c2n(c1=O)CCN(CCN1CCCS1(=O)=O)C2=O` [Example 144] yielded an EC50 of 10.4 µM.
`O=C(NCc1ccc(Cl)cc1)c1cc(C2CC2)c2n(c1=O)CCN(CCN1CCCS1(=O)=O)C2=O` [Example 131] was tested, and the EC50 was 0.949 µM.
`CS(=O)(=O)C1(CN2CCn3c(c(F)cc(C(=O)NCc4ccc(Cl)cc4)c3=O)C2=O)CC1` [Example 167] showed an EC50 of 0.0573 µM.
`CCOC(=O)C1(CN2CCn3c(ccc(C(=O)NCc4ccc(Cl)cc4)c3=O)C2=O)CC1` [Example 207, ethyl 1-((7-((4-chlorobenzyl)carbamoyl)-1,6-dioxo-1,3,4,6-tetrahydro-2H-pyrido[1,2-a]pyrazin-2-yl)methyl)cyclopropane-1-carboxylate] gave an EC50 of 3.79 µM.
Work on `N#Cc1ccc(CNC(=O)c2ccc3n(c2=O)CCN(CC2(S(=O)(=O)CCCO)CC2)C3=O)cc1F` [Example 23] yielded an EC50 of 0.452 µM.
Work on `CS(=O)(=O)CC1(CN2CCn3c(c(F)cc(C(=O)NCc4ccc(Cl)cc4)c3=O)C2=O)CC1` [Example 168] yielded an EC50 of 1.1 µM.
`CCc1cc(C(=O)NCc2ccc(Cl)cc2)c(=O)n2c1C(=O)N(CCN1CCCS1(=O)=O)CC2` [Example 135] gave an EC50 of 0.749 µM.
For `CN(CCN1CCn2c(c(F)cc(C(=O)NCc3ccc(Cl)cc3)c2=O)C1=O)S(C)(=O)=O` [Example 160, N-(4-chlorobenzyl)-9-fluoro-2-(2-(N-methylmethylsulfonamido)ethyl)-1,6-dioxo-1,3,4,6-tetrahydro-2H-pyrido[1,2-a]pyrazine-7-carboxamide], the EC50 was 3.6 µM.
Work on `CS(=O)(=O)CCCN1CCn2c(c(C3CC3)cc(C(=O)NCc3ccc(Cl)cc3)c2=O)C1=O` [Example 130] yielded an EC50 of 13.3 µM.
With `Cc1cc(C(=O)NCc2ccc(Cl)cc2)c(=O)n2c1C(=O)N(CC1(CS(C)(=O)=O)CC1)CC2` [Example 154] the EC50 was 0.662 µM.
Molecule `O=C(NCc1ccc(Cl)cc1)c1cc(CC2CC2)c2n(c1=O)CCN(CCN1CCCS1(=O)=O)C2=O` [Example 133, N-(4-chlorobenzyl)-9-(cyclopropylmethyl)-2-(2-(1,1-dioxidoisothiazolidin-2-yl)ethyl)-1,6-dioxo-1,3,4,6-tetrahydro-2H-pyrido[1,2-a]pyrazine-7-carboxamide] has an EC50 of 1.02 µM.
`CS(=O)(=O)C1(CCN2CCn3c(ccc(C(=O)NCc4ccc(Cl)cc4)c3=O)C2=O)CC1` [Example 170, N-(4-chlorobenzyl)-2-(2-(1-(methylsulfonyl)cyclopropyl)ethyl)-1,6-dioxo-1,3,4,6-tetrahydro-2H-pyrido[1,2-a]pyrazine-7-carboxamide] showed an EC50 of 9.03 µM.
In the case of `CS(=O)(=O)CCCN1CCn2c(c(C(F)(F)F)cc(C(=O)NCc3ccc(Cl)cc3)c2=O)C1=O` [Example 146, N-(4-chlorobenzyl)-2-(3-(methylsulfonyl)propyl)-1,6-dioxo-9-(trifluoromethyl)-1,3,4,6-tetrahydro-2H-pyrido[1,2-a]pyrazine-7-carboxamide], the EC50 is reported as 47.2 µM.
Work on `Cc1cc(C(=O)NCc2ccc(Cl)cc2)c(=O)n2c1C(=O)N(CCC1(S(C)(=O)=O)CC1)CC2` [Example 151] yielded an EC50 of 10 µM.
Work on `O=C(NCc1ccc(Cl)cc1)c1ccc2n(c1=O)CCN(CC1(C(=O)N3CCC3)CC1)C2=O` [Example 208, 2-((1-(azetidine-1-carbonyl)cyclopropyl)methyl)-N-(4-chlorobenzyl)-1,6-dioxo-1,3,4,6-tetrahydro-2H-pyrido[1,2-a]pyrazine-7-carboxamide] yielded an EC50 of 5.18 µM.
With `O=C(NCc1ccc(Cl)cc1)c1ccc2n(c1=O)CCN(CC1(C(=O)N3CCOCC3)CC1)C2=O` [Example 211] the EC50 was 7.81 µM.
`CS(=O)(=O)C1(CCN2CCn3c(c(F)cc(C(=O)NCc4ccc(Cl)cc4)c3=O)C2=O)CC1` [Example 165] showed an EC50 of 10 µM.
